Consider 69 compounds from PubChem BioAssay AID1195 (EPA DSSTox, 2008).

This data set concerns human maximum recommended daily dose, FDA database. In words: DSSTox (FDAMDD) FDA Maximum (Recommended) Daily Dose Database. Conditions: active compounds read low. In a few lines:
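MRDD values come from clinical trials with daily oral dosing, usually for 3–12 months, for the average adult, in mg/day converted to mg/kg-bw/day assuming 60 kg. Antineoplastic mg/m2 doses are divided by 37. Activity score maps log10(1/MRDD mmol) onto 1–100.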

The mark [1] stands for this setting: TherapeuticCategory: glucocorticoid.
Where [2] appears, read: TherapeuticCategory: antipsychotic.
Where [3] appears, read: TherapeuticCategory: analgesic, anti inflammatory.
Setting [4] is: TherapeuticCategory: antibacterial.
Where [5] appears, read: TherapeuticCategory: anti inflammatory.
The mark [6] stands for this setting: TherapeuticCategory: anticholinergic.
Setting [7] is: TherapeuticCategory: sedative, hypnotic.
[8] abbreviates: TherapeuticCategory: antidiabetic.
[9] abbreviates: TherapeuticCategory: antihypertensive.
Where [10] appears, read: TherapeuticCategory: enzyme cofactor vitamin.
[11] abbreviates: TherapeuticCategory: bronchodilator.

On to `Cc1[nH]c(=O)c(C#N)cc1-c1ccncc1`, for which the maximum recommended daily dose (mmol/kg-bw/day) (TherapeuticCategory: cardiotonic) was 0.000237.

Consider `O=C1CN=C(c2ccccc2)c2cc(Cl)ccc2N1CC(F)(F)F`, for which the maximum recommended daily dose (mmol/kg-bw/day) (TherapeuticCategory: anxiolytic) was 0.00757.

As for `Nc1nc(Cl)nc2c1ncn2[C@H]1C[C@H](O)[C@@H](CO)O1`, for the setting “TherapeuticCategory: antineoplastic”, the maximum recommended daily dose (mmol/kg-bw/day) is 0.000315.

For `C[C@H]1C[C@H]2[C@@H]3CCC4=CC(=O)C=C[C@]4(C)[C@H]3C(=O)C[C@]2(C)[C@@]1(O)C(=O)CO`, the maximum recommended daily dose (mmol/kg-bw/day) under setting [1] is 0.00215.

For `C[C@]12CC[C@@H]3c4ccc(OS(=O)(=O)O)cc4CC[C@H]3[C@@H]1CCC2=O`, under “TherapeuticCategory: estrogen”, the maximum recommended daily dose (mmol/kg-bw/day) was 0.000107.

In the case of `CC(C)(C)c1ccc(CN2CCN(C(c3ccccc3)c3ccc(Cl)cc3)CC2)cc1` (centres undefined), the maximum recommended daily dose (mmol/kg-bw/day) (TherapeuticCategory: antiemetic) was 0.00577.

Consider `CCC1NC(=O)c2cc(S(N)(=O)=O)c(Cl)cc2N1` (centres undefined), for which the maximum recommended daily dose (mmol/kg-bw/day) (TherapeuticCategory: diuretic) is 0.0115.

Turning to `Cc1cc2c(s1)Nc1ccccc1N=C2N1CCN(C)CC1`, the maximum recommended daily dose (mmol/kg-bw/day) under setting [2] is 0.0008.

Turning to `CC(C(=O)O)c1cccc(Oc2ccccc2)c1` (centres undefined), under setting [3], the maximum recommended daily dose (mmol/kg-bw/day) was 0.206.

Turning to `CO[C@@H]1[C@@H](OC(N)=O)[C@@H](O)[C@H](Oc2ccc3c(O)c(NC(=O)c4ccc(O)c(CC=C(C)C)c4)c(=O)oc3c2C)OC1(C)C`, the maximum recommended daily dose (mmol/kg-bw/day) under setting [4] was 0.0394.

On to `Nc1ccc(C(=O)O)c(O)c1`, for which, under setting [4], the maximum recommended daily dose (mmol/kg-bw/day) was 1.31.

Regarding `Cc1cccc(Nc2ccccc2C(=O)O)c1C`, the maximum recommended daily dose (mmol/kg-bw/day) under setting [5] was 0.0862.

For the compound `Cc1cccc(C)c1NC(=O)c1cc(S(N)(=O)=O)c(Cl)cc1O`, under “TherapeuticCategory: diuretic, antihypertensive”, the maximum recommended daily dose (mmol/kg-bw/day) was 0.00188.

Consider `Cc1c(-c2ccccc2)oc2c(C(=O)OCCN3CCCCC3)cccc2c1=O`, for which, for the setting “TherapeuticCategory: antispasmodic”, the maximum recommended daily dose (mmol/kg-bw/day) was 0.034.

With `CCN(CC)C(=O)C1CN2CCc3cc(OC)c(OC)cc3C2CC1OC(C)=O` (centres undefined), the maximum recommended daily dose (mmol/kg-bw/day) (TherapeuticCategory: antipsychotic, antiemeic) is 0.00103.

As to `CCOC(=O)C1=C[C@]2(CC)CCCN3CCc4c(n1c1ccccc41)[C@@H]32`, the maximum recommended daily dose (mmol/kg-bw/day) (TherapeuticCategory: cerebral vasodilator) is 0.00143.

With `CN(C)CCOC(C)(c1ccccc1)c1ccc(Cl)cc1` (centres undefined), under “TherapeuticCategory: antiamebic”, the maximum recommended daily dose (mmol/kg-bw/day) is 0.123.

Regarding `CN1C(=O)CC(C)(c2ccccc2)C1=O` (centres undefined), where the note is “TherapeuticCategory: anticonvulsant”, the maximum recommended daily dose (mmol/kg-bw/day) is 0.0984.

Take `C[C@]1(O)CC[C@H]2[C@@H]3CCC4=CC(=O)CC[C@@H]4[C@H]3CC[C@@]21C`: under “TherapeuticCategory: androgen”, the maximum recommended daily dose (mmol/kg-bw/day) is 0.00173.

Take `CCCC(CCC)C(=O)OC1C[C@H]2CC[C@@H](C1)[N+]2(C)C` (some centres undefined): the maximum recommended daily dose (mmol/kg-bw/day) under setting [6] is 0.0069.

Take `O=C1CSC2(CCN(CCCN3c4ccccc4Sc4ccc(Cl)cc43)CC2)N1`: the maximum recommended daily dose (mmol/kg-bw/day) under setting [2] was 0.0155.

In the case of `CC(=O)c1ccc2c(c1)N(CCCN1CCC(CCO)CC1)c1ccccc1S2`, the maximum recommended daily dose (mmol/kg-bw/day) under setting [2] is 0.0065.

For the compound `C#C[C@]1(O)CC[C@H]2[C@@H]3CCC4=Cc5oncc5C[C@]4(C)[C@H]3CC[C@@]21C`, for the setting “TherapeuticCategory: antigonadotropin”, the maximum recommended daily dose (mmol/kg-bw/day) was 0.0394.

Regarding `CCC1(CC)C(=O)NC(=O)NC1=O`, the maximum recommended daily dose (mmol/kg-bw/day) under setting [7] was 0.0543.

`CCCCCCc1ccc(O)cc1O`: for the setting “TherapeuticCategory: antihelmintic, antiseptic”, the maximum recommended daily dose (mmol/kg-bw/day) is 0.0858.

`CC(C)(C)c1nnc(NS(=O)(=O)c2ccccc2)s1`: the maximum recommended daily dose (mmol/kg-bw/day) under setting [8] was 0.042.

As for `CCCCc1ncc(/C=C(\Cc2cccs2)C(=O)O)n1Cc1ccc(C(=O)O)cc1`, under setting [9], the maximum recommended daily dose (mmol/kg-bw/day) is 0.0313.

As for `CCN(CC)S(=O)(=O)c1ccc(C(=O)O)cc1`, the maximum recommended daily dose (mmol/kg-bw/day) (TherapeuticCategory: uricosuric) is 0.194.

In the case of `NS(=O)(=O)c1cc2c(cc1Cl)NCNS2(=O)=O`, the maximum recommended daily dose (mmol/kg-bw/day) (TherapeuticCategory: diuretic) was 0.0112.

As to `O=C(Cn1cnnn1)N[C@@H]1C(=O)N2C(C(=O)O)=C(CSc3nncs3)CS[C@H]12`, the maximum recommended daily dose (mmol/kg-bw/day) under setting [4] was 0.151.

On to `Cc1cc2nc3c(=O)[nH]c(=O)nc-3n(C[C@H](O)[C@H](O)[C@H](O)CO)c2cc1C`, for which the maximum recommended daily dose (mmol/kg-bw/day) under setting [10] is 0.00133.

Regarding `C[C@H]1CC[C@@H]2N(C1)C[C@@H]1[C@H]([C@@H](O)[C@H](O)[C@]3(O)[C@H]1C[C@@]14O[C@@]5(O)[C@@H]([C@@H](O)[C@@H](O)[C@@H]31)[C@]4(C)CC[C@@H]5O)[C@]2(C)O`, the maximum recommended daily dose (mmol/kg-bw/day) (TherapeuticCategory: none) is 4.76e-05.

As to `Cn1c(=O)c2c(ncn2CCOC(=O)C(C)(C)Oc2ccc(Cl)cc2)n(C)c1=O`, the maximum recommended daily dose (mmol/kg-bw/day) under setting [11] was 0.0297.

As to `C[N+]1(C)CCC(=C(c2ccccc2)c2ccccc2)CC1`, the maximum recommended daily dose (mmol/kg-bw/day) under setting [6] was 0.0341.

Take `O=C(O)CCC(=O)O`: where the note is “TherapeuticCategory: antiulcerative”, the maximum recommended daily dose (mmol/kg-bw/day) is 0.847.

`CCCCc1ccc(C(=O)O)nc1`: the maximum recommended daily dose (mmol/kg-bw/day) (TherapeuticCategory: none) was 0.0418.

As to `COc1cc2nc(N3CCN(C(=O)C4COc5ccccc5O4)CC3)nc(N)c2cc1OC` (centres undefined), the maximum recommended daily dose (mmol/kg-bw/day) under setting [9] was 0.000591.

Take `CCOc1c(N2CCOCC2)cnn(C)c1=O`: the maximum recommended daily dose (mmol/kg-bw/day) under setting [3] was 0.0139.

As for `CC(=O)OCC(=O)[C@@]1(O)[C@@H](C)C[C@H]2[C@@H]3CCC4=CC(=O)C=C[C@]4(C)[C@@]3(F)[C@@H](O)C[C@@]21C`, under setting [1], the maximum recommended daily dose (mmol/kg-bw/day) was 0.000345.

Consider `NC(=O)NNc1ccccc1`, for which the maximum recommended daily dose (mmol/kg-bw/day) (TherapeuticCategory: antipyretic) is 0.165.

As to `NC[C@@H]1CC[C@@H](N)[C@@H](O[C@H]2[C@H](O)[C@@H](O[C@H]3O[C@H](CO)[C@@H](O)[C@H](N)[C@H]3O)[C@H](N)C[C@@H]2N)O1`, under setting [4], the maximum recommended daily dose (mmol/kg-bw/day) is 0.00664.

With `CC(=O)O[C@H]1C[C@@]2(C)[C@@H](C[C@@H](O)[C@H]3[C@@]4(C)CC[C@@H](O)[C@@H](C)[C@@H]4CC[C@@]32C)/C1=C(\CCC=C(C)C)C(=O)O`, the maximum recommended daily dose (mmol/kg-bw/day) under setting [4] is 0.0484.

Turning to `CCCCC(C(=O)O)C(=O)N(Nc1ccccc1)c1ccccc1` (centres undefined), the maximum recommended daily dose (mmol/kg-bw/day) (TherapeuticCategory: analgesic, antipyretic, anti inflammatory) is 0.0337.

Take `COc1ccc(C(CN(C)C)C2(O)CCCCC2)cc1` (centres undefined): for the setting “TherapeuticCategory: antidepressant”, the maximum recommended daily dose (mmol/kg-bw/day) was 0.0225.

With `CCOC(=O)CCCCCCCCC(C)c1ccc(I)cc1` (centres undefined), where the note is “TherapeuticCategory: diagnostic aid”, the maximum recommended daily dose (mmol/kg-bw/day) was 0.3.

On to `C=CCC1(C(C)C)C(=O)NC(=O)NC1=O`, for which, under setting [7], the maximum recommended daily dose (mmol/kg-bw/day) is 0.0127.

Turning to `CCCCC1C(=O)N(c2ccccc2)N(c2ccccc2)C1=O`, the maximum recommended daily dose (mmol/kg-bw/day) under setting [5] was 0.0324.

For the compound `C[C@]12C=CC(=O)C=C1C(Cl)=C[C@@H]1[C@@H]2[C@@H](O)C[C@@]2(C)[C@H]1CC[C@]2(O)C(=O)CO`, the maximum recommended daily dose (mmol/kg-bw/day) under setting [1] was 0.000529.

On to `Cc1onc(-c2c(Cl)cccc2Cl)c1C(=O)N[C@@H]1C(=O)N2[C@@H]1SC(C)(C)[C@@H]2C(=O)O`, for which the maximum recommended daily dose (mmol/kg-bw/day) under setting [4] was 0.0355.

With `NC(CO)C(=O)NNCc1ccc(O)c(O)c1O` (centres undefined), for the setting “TherapeuticCategory: antiparkinsonian”, the maximum recommended daily dose (mmol/kg-bw/day) is 0.0129.

For the compound `COc1ccc2c(c1)N(C[C@H](C)CN(C)C)c1ccccc1S2`, the maximum recommended daily dose (mmol/kg-bw/day) (TherapeuticCategory: analgesic) is 0.0101.

`CO/N=C(\C(=O)N[C@@H]1C(=O)N2C(C(=O)O)=C(CSc3nc(C)c(CC(=O)O)s3)CS[C@H]12)c1csc(N)n1`: under setting [4], the maximum recommended daily dose (mmol/kg-bw/day) was 0.057.

In the case of `Cc1cc(=O)[nH]c(=S)[nH]1`, the maximum recommended daily dose (mmol/kg-bw/day) (TherapeuticCategory: thyroid inhibitor) was 0.0703.

As for `Cc1cc(C(=O)NCCc2ccc(S(=O)(=O)NC(=O)NN3CCCCCC3)cc2)no1`, the maximum recommended daily dose (mmol/kg-bw/day) under setting [8] is 0.000594.

In the case of `CC(CN1c2ccccc2Sc2ccc(S(=O)(=O)N(C)C)cc21)N(C)C` (centres undefined), for the setting “TherapeuticCategory: antimigraine”, the maximum recommended daily dose (mmol/kg-bw/day) was 0.0034.

Consider `O=C(O)CC(O)(CC(=O)O)C(=O)O`, for which the maximum recommended daily dose (mmol/kg-bw/day) (TherapeuticCategory: bactericide) was 0.52.

In the case of `C#C[C@]1(O)CC[C@H]2[C@@H]3CCc4cc(OC)ccc4[C@H]3CC[C@@]21C`, under “TherapeuticCategory: estrogen”, the maximum recommended daily dose (mmol/kg-bw/day) was 2.67e-06.

Regarding `CCCC1C(=O)N2C(N(C)C)=Nc3ccc(C)cc3N2C1=O` (centres undefined), under setting [3], the maximum recommended daily dose (mmol/kg-bw/day) was 0.0892.

For `CCOC(=O)[C@H](CCc1ccccc1)N[C@H]1CCc2ccccc2N(CC(=O)O)C1=O`, the maximum recommended daily dose (mmol/kg-bw/day) (TherapeuticCategory: antihypertensive, ACE inhibitor) was 0.00313.

`COc1ccccc1OCC1CNC(=O)O1` (centres undefined): the maximum recommended daily dose (mmol/kg-bw/day) (TherapeuticCategory: anxiolytic, skeletal muscle relaxant) is 0.0896.

`CCOC(=O)C(C)(C)Oc1ccc(Cl)cc1`: under “TherapeuticCategory: antihyperlipoproteinemic”, the maximum recommended daily dose (mmol/kg-bw/day) is 0.137.

As for `CN1CCc2cccc3c2[C@H]1Cc1ccc(O)c(O)c1-3`, the maximum recommended daily dose (mmol/kg-bw/day) (TherapeuticCategory: emetic) was 0.00625.

As for `Cc1ncc(C[n+]2csc(CCO)c2C)c(N)n1`, the maximum recommended daily dose (mmol/kg-bw/day) under setting [10] is 0.00555.

As to `CCCCCCC(=O)OCCN1CCN(CCCN2c3ccccc3Sc3ccc(C(F)(F)F)cc32)CC1`, where the note is “TherapeuticCategory: antispsychotic”, the maximum recommended daily dose (mmol/kg-bw/day) is 0.000606.

Consider `C[C@H]1C[C@H]2[C@@H]3CCC4=CC(=O)C=C[C@]4(C)[C@@]3(F)[C@@H](O)C[C@]2(C)[C@@]1(OC(=O)c1ccccc1)C(=O)CO`, for which, under setting [1], the maximum recommended daily dose (mmol/kg-bw/day) is 0.000302.

For `CC(C)COCC(CN(Cc1ccccc1)c1ccccc1)N1CCCC1` (centres undefined), the maximum recommended daily dose (mmol/kg-bw/day) (TherapeuticCategory: antianginal) is 0.0182.

On to `Cc1onc(-c2ccccc2)c1C(=O)N[C@@H]1C(=O)N2[C@@H]1SC(C)(C)[C@@H]2C(=O)O`, for which, under setting [4], the maximum recommended daily dose (mmol/kg-bw/day) is 0.249.

Take `CC(C)NCC(O)c1ccc(O)c(O)c1` (centres undefined): the maximum recommended daily dose (mmol/kg-bw/day) under setting [11] was 0.000791.

Turning to `Cc1cccc(Nc2ccncc2S(=O)(=O)NC(=O)NC(C)C)c1`, under “TherapeuticCategory: diuretic”, the maximum recommended daily dose (mmol/kg-bw/day) is 0.00956.
